From ChEMBL document CHEMBL3885861, “Open TG-GATES”

Species: Rattus norvegicus
Experiment: Open TG-GATES - Regimen: Single
Type: toxicity, organism-based, Sprague-Dawley
Set-up: regimen Single, gender Male, age 6 weeks
Details: in vivo, po, 100 mg/kg, route gavage, dose level Low; for APTT / Bas / Eos / Fbg / Hb / Ht / Lym / MCH / MCHC / MCV / Mono / Neu / PT / Plat / RBC / Ret / WBC: tissue Blood; for KIDNEY_L / KIDNEY_R / KIDNEY_TOTAL: tissue Kidney; for LIVER: tissue Liver; for A/G / ALP / ALT / AST / BUN / CRE / Ca / Cl / DBIL / GLC / IP / K / LDH / Na / PL / RALB / TBIL / TC / TG / TP / gamma-GTP: tissue Plasma

`C[C@H]1O[C@H](O[C@H]2[C@H](O)[C@@H](O)[C@@H](O[C@H]3[C@H](O)[C@@H](O)C(O)O[C@@H]3CO)O[C@@H]2CO)[C@H](O)[C@@H](O)[C@@H]1N[C@H]1C=C(CO)[C@@H](O)[C@H](O)[C@H]1O` (some centres not stated) [ACARBOSE] gave a TERMINAL_BW (3 h) of 197.7 g, an APTT (3 h) of 16.7 s and a Bas (3 h) of 0.2%. For the same compound, the Eos (3 h) was 0.8%, the Fbg (3 h) was 274.6 mg/dL and the Hb (3 h) was 13.5 g/dL. It also gave a Ht (3 h) of 41.3%, a Lym (3 h) of 78.4% and an MCH (3 h) of 21.1 pg. The MCHC (3 h) was 32.6%, the MCV (3 h) was 64.8 fL and the Mono (3 h) was 2%. It also gave a Neu (3 h) of 17.8%, a PT (3 h) of 13.6 s and a Plat (3 h) of 118.3 x10_4/uL. The RBC (3 h) was 639 x10_4/ul, the Ret (3 h) was 8.2% and the WBC (3 h) was 89.6 x10_2/uL. The KIDNEY_L (3 h) was 0.9 g, the KIDNEY_R (3 h) was 0.9 g and the KIDNEY_TOTAL (3 h) was 1.8 g. It also gave an LIVER (3 h) of 8.5 g, an A/G (3 h) of 0.9 and an ALP (3 h) of 1409.6 IU/L. It also gave an ALT (3 h) of 39.2 IU/L, an AST (3 h) of 77.6 IU/L and a BUN (3 h) of 10.4 mg/dL. The CRE (3 h) was 0.2 mg/dL, the Ca (3 h) was 10.7 mg/dL and the Cl (3 h) was 104.6 meq/L. For the same compound, the DBIL (3 h) was 0.004 mg/dL, the GLC (3 h) was 172.2 mg/dL and the IP (3 h) was 9.9 mg/dL. For the same compound, the K (3 h) was 3.8 meq/L, the LDH (3 h) was 60 IU/L and the Na (3 h) was 141.2 meq/L. It also gave a PL (3 h) of 136.4 mg/dL, an RALB (3 h) of 2.5 g/dL and a TBIL (3 h) of 0.062 mg/dL. For the same compound, the TC (3 h) was 75.4 mg/dL, the TG (3 h) was 39.2 mg/dL and the TP (3 h) was 5.1 g/dL. For the same compound, the gamma-GTP (3 h) was 1 IU/L, the TERMINAL_BW (6 h) was 198.1 g and the APTT (6 h) was 16 s. It also gave a Bas (6 h) of 0%, an Eos (6 h) of 1% and a Fbg (6 h) of 307.2 mg/dL. It also gave a Hb (6 h) of 13.4 g/dL, a Ht (6 h) of 41.5% and a Lym (6 h) of 78.2%. It also gave an MCH (6 h) of 21 pg, an MCHC (6 h) of 32.3% and an MCV (6 h) of 65.1 fL. It also gave a Mono (6 h) of 2.2%, a Neu (6 h) of 17.8% and a PT (6 h) of 13.3 s. The Plat (6 h) was 117.7 x10_4/uL, the RBC (6 h) was 636.8 x10_4/ul and the Ret (6 h) was 8.8%. For the same compound, the WBC (6 h) was 81.3 x10_2/uL, the KIDNEY_L (6 h) was 0.9 g and the KIDNEY_R (6 h) was 0.9 g. The KIDNEY_TOTAL (6 h) was 1.9 g, the LIVER (6 h) was 8.3 g and the A/G (6 h) was 0.9. For the same compound, the ALP (6 h) was 1322 IU/L, the ALT (6 h) was 34.6 IU/L and the AST (6 h) was 67.8 IU/L. For the same compound, the BUN (6 h) was 8.4 mg/dL, the CRE (6 h) was 0.2 mg/dL and the Ca (6 h) was 10.8 mg/dL. The Cl (6 h) was 104.2 meq/L, the DBIL (6 h) was 0.002 mg/dL and the GLC (6 h) was 168.2 mg/dL. For the same compound, the IP (6 h) was 10.2 mg/dL, the K (6 h) was 3.8 meq/L and the LDH (6 h) was 58.4 IU/L. It also gave a Na (6 h) of 141 meq/L, a PL (6 h) of 133.8 mg/dL and an RALB (6 h) of 2.5 g/dL. It also gave a TBIL (6 h) of 0.062 mg/dL, a TC (6 h) of 77.2 mg/dL and a TG (6 h) of 31 mg/dL. It also gave a TP (6 h) of 5.2 g/dL, a gamma-GTP (6 h) of 1 IU/L and a TERMINAL_BW (9 h) of 195.5 g. For the same compound, the APTT (9 h) was 16.9 s, the Bas (9 h) was 0% and the Eos (9 h) was 0.8%. The Fbg (9 h) was 303.8 mg/dL, the Hb (9 h) was 13 g/dL and the Ht (9 h) was 40.5%. For the same compound, the Lym (9 h) was 77.4%, the MCH (9 h) was 20.6 pg and the MCHC (9 h) was 32.2%. It also gave an MCV (9 h) of 63.9 fL, a Mono (9 h) of 2.6% and a Neu (9 h) of 18.4%. For the same compound, the PT (9 h) was 13.4 s, the Plat (9 h) was 124.4 x10_4/uL and the RBC (9 h) was 634.4 x10_4/ul. It also gave a Ret (9 h) of 8.3%, a WBC (9 h) of 71.6 x10_2/uL and a KIDNEY_L (9 h) of 0.9 g. For the same compound, the KIDNEY_R (9 h) was 0.9 g, the KIDNEY_TOTAL (9 h) was 1.8 g and the LIVER (9 h) was 7.9 g. The A/G (9 h) was 0.9, the ALP (9 h) was 1274 IU/L and the ALT (9 h) was 35.8 IU/L. It also gave an AST (9 h) of 68.4 IU/L, a BUN (9 h) of 8 mg/dL and a CRE (9 h) of 0.2 mg/dL. The Ca (9 h) was 10.6 mg/dL, the Cl (9 h) was 105 meq/L and the DBIL (9 h) was 0 mg/dL. For the same compound, the GLC (9 h) was 178.2 mg/dL, the IP (9 h) was 10 mg/dL and the K (9 h) was 3.9 meq/L. The LDH (9 h) was 64.2 IU/L, the Na (9 h) was 141.6 meq/L and the PL (9 h) was 150.4 mg/dL. It also gave an RALB (9 h) of 2.5 g/dL, a TBIL (9 h) of 0.058 mg/dL and a TC (9 h) of 85.4 mg/dL. For the same compound, the TG (9 h) was 61.6 mg/dL, the TP (9 h) was 5.3 g/dL and the gamma-GTP (9 h) was 1 IU/L. For the same compound, the TERMINAL_BW (24 h) was 213.3 g, the APTT (24 h) was 17.6 s and the Bas (24 h) was 0%. For the same compound, the Eos (24 h) was 1%, the Fbg (24 h) was 286.2 mg/dL and the Hb (24 h) was 13.4 g/dL. For the same compound, the Ht (24 h) was 41%, the Lym (24 h) was 76.4% and the MCH (24 h) was 20.9 pg. For the same compound, the MCHC (24 h) was 32.7%, the MCV (24 h) was 63.9 fL and the Mono (24 h) was 2.6%. For the same compound, the Neu (24 h) was 19.2%, the PT (24 h) was 13 s and the Plat (24 h) was 114.1 x10_4/uL. The RBC (24 h) was 641.4 x10_4/ul, the Ret (24 h) was 7.9% and the WBC (24 h) was 97.3 x10_2/uL. It also gave a KIDNEY_L (24 h) of 0.9 g, a KIDNEY_R (24 h) of 0.9 g and a KIDNEY_TOTAL (24 h) of 1.9 g. The LIVER (24 h) was 10.2 g, the A/G (24 h) was 0.9 and the ALP (24 h) was 1382.4 IU/L. It also gave an ALT (24 h) of 44.6 IU/L, an AST (24 h) of 74 IU/L and a BUN (24 h) of 14.4 mg/dL. For the same compound, the CRE (24 h) was 0.2 mg/dL, the Ca (24 h) was 10.9 mg/dL and the Cl (24 h) was 105.4 meq/L. The DBIL (24 h) was 0.008 mg/dL, the GLC (24 h) was 170.8 mg/dL and the IP (24 h) was 8.3 mg/dL. The K (24 h) was 4.1 meq/L, the LDH (24 h) was 57.8 IU/L and the Na (24 h) was 142.6 meq/L. For the same compound, the PL (24 h) was 140.8 mg/dL, the RALB (24 h) was 2.6 g/dL and the TBIL (24 h) was 0.056 mg/dL. For the same compound, the TC (24 h) was 72.6 mg/dL, the TG (24 h) was 76.2 mg/dL and the TP (24 h) was 5.5 g/dL. The gamma-GTP (24 h) was 1 IU/L.
